Values joined by “and” are separate entries in the source; they are usually repeats but may differ in a detail not shown here. Equal values may be shown once. Read-outs that look alike come from different tables or passages of the source.
Test: Pharmacokinetics after intra-duodenal injection (ID) in anesthetized rats, model mimicking enteric-coated oral dosage form, plasma LC-MS
Type: in vivo, rat
Details: for Total mean A(1-7) exposure over the observation period: ID; for level at 0 h / level at 10 min / level at 20 min / level at 40 min / level at 1 h / level at 1.5 h / level at 5 min: read-out: Angiotensin (1-7) concentration
Experimental: This model mimics the release and absorption expected from an orally delivered enteric coated solid dosage form such as capsule or tablet.
After extraction, the samples were then transferred to ice-cold tubes containing a protease inhibitor cocktail. The samples were kept on ice until they were centrifuged at 4° C. to obtain plasma. The plasma supernatants were then frozen −70° C. until analysis using an LC-MS assay.
The oral delivery of an angiotensin (1-7) peptide (e.g., TXA127) was then evaluated in a rat model that mimics the release of the peptide into the intestine by enteric-coated capsule. Briefly, the duodenums of anesthetized rats were surgically exposed, and an angiotensin (1-7) peptide was delivered through a 27 gauge needle into the duodenum. A baseline was obtained by ID administration of an angiotensin (1-7) in PBS. Samples of blood was removed from the carotid artery before and 5, 10, 20, 40, 60 and 90 minutes after peptide administration. Subsequently, an angiotensin (1-7) peptide was administered ID in 400 mM citrate buffer (pH 3.5) and lauroyl-L-carnitine (LLC) (10 mg/ml), a formulation that mimics the contents of the enteric-coated capsules. In order to maximize the stability of TXA127 in rat circulation, captopril (e.g., 0.5 mg/ml or 5 mg/ml) may be added to the formulations. Blood samples were taken at the same time points as the baseline study and handled as described above for analysis.

[1] = ID 0.3 ml A [10 mg/ml in PBS], individual rats
[2] = ID 0.3 ml B [10 mg/ml, 10 mg/ml LLC, 400 mM Citrate pH 3.5, 150 mM NaCl], individual rats
[3] = ID 0.3 ml C [10 mg/ml, Captopril 0.5 mg/ml, 10 mg/ml LLC, 400 mM Citrate pH 3.5, 150 mM NaCl], individual rats
[4] = ID 0.3 ml C [10 mg/ml, Captopril 5 mg/ml, 10 mg/ml LLC, 400 mM Citrate pH 3.5, 150 mM NaCl], individual rats

CC[C@H](C)[C@H](NC(=O)[C@H](Cc1ccc(O)cc1)NC(=O)[C@@H](NC(=O)[C@H](CCCNC(=N)N)NC(=O)[C@@H](N)CC(=O)O)C(C)C)C(=O)N[C@@H](Cc1c[nH]cn1)C(=O)N1CCC[C@H]1C(=O)O [Angiotensin (1-7), Asp^1-Arg^2-Val^3-Tyr^4-Ile^5-His^6-Pro^7]
AUC0-90 [1]: 123 ng·min/mL and 881 ng·min/mL and 181 ng·min/mL and 456 ng·min/mL and 166 ng·min/mL and 616 ng·min/mL
Cmax [1]: 3.44 ng/mL and 15 ng/mL and 4 ng/mL and 9 ng/mL and 3 ng/mL and 10.4 ng/mL
Half-Life [1]: 51 min and 140 min and 23 min and 7 min
Angiotensin (1-7) concentration (ID 0.3 ml A [10 mg/ml in PBS], time point 0 min (before administration), individual rats): 0.23 ng/mL and 0.0 ng/mL and 1.54 ng/mL and 1.00 ng/mL and 1.84 ng/mL and 5.81 ng/mL
Angiotensin (1-7) concentration (ID 0.3 ml A [10 mg/ml in PBS], time point 5 min, individual rats): 0.84 ng/mL and 12.3 ng/mL and 0.94 ng/mL and 0.88 ng/mL and 0.891 ng/mL and 9.24 ng/mL
Angiotensin (1-7) concentration (ID 0.3 ml A [10 mg/ml in PBS], time point 10 min, individual rats): 3.44 ng/mL and 6.38 ng/mL and 1.08 ng/mL and 0.99 ng/mL and 1.12 ng/mL and 4.08 ng/mL
Angiotensin (1-7) concentration (ID 0.3 ml A [10 mg/ml in PBS], time point 20 min, individual rats): 0.62 ng/mL and 13.3 ng/mL and 1.91 ng/mL and 1.79 ng/mL and 1.80 ng/mL and 2.05 ng/mL
Angiotensin (1-7) concentration (ID 0.3 ml A [10 mg/ml in PBS], time point 40 min, individual rats): 0.27 ng/mL and 15.4 ng/mL and 1.22 ng/mL and 4.14 ng/mL and 1.30 ng/mL and 3.89 ng/mL
Angiotensin (1-7) concentration (ID 0.3 ml A [10 mg/ml in PBS], time point 60 min, individual rats): 1.55 ng/mL and 6.27 ng/mL and 3.97 ng/mL and 8.75 ng/mL and 3.07 ng/mL and 10.4 ng/mL
Angiotensin (1-7) concentration (ID 0.3 ml A [10 mg/ml in PBS], time point 90 min, individual rats): 2.61 ng/mL and 7.19 ng/mL and 0.78 ng/mL and 7.54 ng/mL and 1.23 ng/mL and 10.4 ng/mL
AUC0-90 [2]: 19,502.2 ng*min/mL and 1,777.5 ng*min/mL and 422.8 ng*min/mL and 1,168.2 ng*min/mL and 2,100.6 ng*min/mL and 669.9 ng*min/mL
Cmax [2]: >1000 ng/mL and 259.0 ng/mL and 19.3 ng/mL and 89.7 ng/mL and 60.7 ng/mL and 56.4 ng/mL
Half-Life [2]: 9.3 min and 173.3 min and 23.8 min and 25.2 min and 21.6 min and 25.0 min
Angiotensin (1-7) concentration (ID 0.3 ml B [10 mg/ml, 10 mg/ml LLC, 400 mM Citrate pH 3.5, 150 mM NaCl], time point 0 min (before administration), individual rats): 1.46 ng/mL
Angiotensin (1-7) concentration (ID 0.3 ml B [10 mg/ml, 10 mg/ml LLC, 400 mM Citrate pH 3.5, 150 mM NaCl], time point 5 min, individual rats): >1000 ng/mL and 259 ng/mL and 3.48 ng/mL and 89.7 ng/mL and 60.7 ng/mL and 56.38 ng/mL
Angiotensin (1-7) concentration (ID 0.3 ml B [10 mg/ml, 10 mg/ml LLC, 400 mM Citrate pH 3.5, 150 mM NaCl], time point 10 min, individual rats): >1000 ng/mL and 21 ng/mL and 19.3 ng/mL and 15.2 ng/mL and 59.6 ng/mL and 17.92 ng/mL
Angiotensin (1-7) concentration (ID 0.3 ml B [10 mg/ml, 10 mg/ml LLC, 400 mM Citrate pH 3.5, 150 mM NaCl], time point 20 min, individual rats): 59.9 ng/mL and 7.35 ng/mL and 6.02 ng/mL (2×) and 18.4 ng/mL and 51.2 ng/mL
Angiotensin (1-7) concentration (ID 0.3 ml B [10 mg/ml, 10 mg/ml LLC, 400 mM Citrate pH 3.5, 150 mM NaCl], time point 40 min, individual rats): 4.88 ng/mL and 5.6 ng/mL and 2.32 ng/mL and 5.05 ng/mL and 11.7 ng/mL and 1.11 ng/mL
Angiotensin (1-7) concentration (ID 0.3 ml B [10 mg/ml, 10 mg/ml LLC, 400 mM Citrate pH 3.5, 150 mM NaCl], time point 60 min, individual rats): 4.74 ng/mL and 1.7 ng/mL and 3.99 ng/mL and 6.36 ng/mL and 10.9 ng/mL and 3.48 ng/mL
Angiotensin (1-7) concentration (ID 0.3 ml B [10 mg/ml, 10 mg/ml LLC, 400 mM Citrate pH 3.5, 150 mM NaCl], time point 90 min, individual rats): 3.93 ng/mL and 3.99 ng/mL and 1.11 ng/mL and 4.43 ng/mL and 4.74 ng/mL and 3.39 ng/mL
AUC0-90 [3]: 9,257 ng*min/mL and 20,442 ng*min/mL and 7,394 ng*min/mL and 2,252 ng*min/mL (2×) and 6,495 ng*min/mL
Cmax [3]: 879.0 ng/mL and >1000 ng/mL and 468.0 ng/mL and 83.0 ng/mL (2×) and 735.0 ng/mL
Half-Life [3]: 11.9 min and 29.1 min and 13.9 min and 18.3 min (2×) and 17.9 min
Angiotensin (1-7) concentration (ID 0.3 ml C [10 mg/ml, Captopril 0.5 mg/ml, 10 mg/ml LLC, 400 mM Citrate pH 3.5, 150 mM NaCl], time point 0 min (before administration), Average): 1.1 ng/mL
AUC0-90 [4]: 26,654 ng*min/mL and 1,008 ng*min/mL and 7,641 ng*min/mL and 10,668 ng*min/mL and 6,228 ng*min/mL and 3,862 ng*min/mL
Cmax [4]: <1000 ng/mL and 33.5 ng/mL and 504 ng/mL and 746.0 ng/mL and 391.25 ng/mL and 432.85 ng/mL
Half-Life [4]: 10.55 min and 7.97 min and 15.45 min and 11.94 min and 12.86 min and 25.62 min
Angiotensin (1-7) concentration (ID 0.3 ml C [10 mg/ml, Captopril 5 mg/ml, 10 mg/ml LLC, 400 mM Citrate pH 3.5, 150 mM NaCl], time point 0 min (before administration), Average): 2.42 ng/mL
Total mean A(1-7) exposure over the observation period (0.3 mL of 10 mg/mL A(1-7) formulated in PBS, 6 rats): 403 ng·min/mL
Total mean A(1-7) exposure over the observation period (0.3 mL of 10 mg/mL A(1-7) with 0.5 mg/mL captopril (as printed in the text on Table 5), 10 mg/mL LLC, 400 mM Citrate, 150 mM NaCl pH 3.5, six rats): 9,399 ng*min/mL
Total mean A(1-7) exposure over the observation period (0.3 mL of 10 mg/mL A(1-7) with 0.5 mg/mL captopril, 10 mg/mL LLC, 400 mM Citrate, 150 mM NaCl pH 3.5, seven rats (Table 4)): 7,152 ng*min/mL
Total mean A(1-7) exposure over the observation period (0.3 mL of 10 mg/mL A(1-7) with 10 mg/mL LLC, 400 mM Citrate, 150 mM NaCl pH 3.5): 4,274 ng*min/mL
Half-life and total exposure compared to the baseline profile of angiotensin (1-7) delivered in PBS (formulation according to the invention (citrate, LLC, with or without captopril), rat model mimicking oral delivery): significantly improved half-life and total exposure
level at 0 h (rat, plasma, 3 mg per rat, pH 3.5, ID 0.3 ml B [10 mg/ml, 10 mg/ml LLC, 400 mM Citrate pH 3.5, 150 mM NaCl], time point 0 min (before administration), Average): 1.51 ng/mL
level at 10 min (rat, plasma, 3 mg per rat, pH 3.5, ID 0.3 ml B [10 mg/ml, 10 mg/ml LLC, 400 mM Citrate pH 3.5, 150 mM NaCl], time point 10 min, Average): 204 ng/mL
level at 20 min (rat, plasma, 3 mg per rat, pH 3.5, ID 0.3 ml B [10 mg/ml, 10 mg/ml LLC, 400 mM Citrate pH 3.5, 150 mM NaCl], time point 20 min, Average): 24.8 ng/mL
level at 40 min (rat, plasma, 3 mg per rat, pH 3.5, ID 0.3 ml B [10 mg/ml, 10 mg/ml LLC, 400 mM Citrate pH 3.5, 150 mM NaCl], time point 40 min, Average): 5.11 ng/mL
level at 1 h (rat, plasma, 3 mg per rat, pH 3.5, ID 0.3 ml B [10 mg/ml, 10 mg/ml LLC, 400 mM Citrate pH 3.5, 150 mM NaCl], time point 60 min, Average): 5.2 ng/mL
level at 1.5 h (rat, plasma, 3 mg per rat, pH 3.5, ID 0.3 ml B [10 mg/ml, 10 mg/ml LLC, 400 mM Citrate pH 3.5, 150 mM NaCl], time point 90 min, Average): 3.6 ng/mL
level at 0 h (rat, plasma, 3 mg, ID 0.3 ml A [10 mg/ml in PBS], time point 0 min (before administration), Average): 1.74 ng/mL
level at 5 min (rat, plasma, 3 mg, ID 0.3 ml A [10 mg/ml in PBS], time point 5 min, Average): 4.18 ng/mL
level at 10 min (rat, plasma, 3 mg, ID 0.3 ml A [10 mg/ml in PBS], time point 10 min, Average): 2.85 ng/mL
level at 20 min (rat, plasma, 3 mg, ID 0.3 ml A [10 mg/ml in PBS], time point 20 min, Average): 3.58 ng/mL
level at 40 min (rat, plasma, 3 mg, ID 0.3 ml A [10 mg/ml in PBS], time point 40 min, Average): 4.37 ng/mL
level at 1 h (rat, plasma, 3 mg, ID 0.3 ml A [10 mg/ml in PBS], time point 60 min, Average): 5.67 ng/mL
level at 1.5 h (rat, plasma, 3 mg, ID 0.3 ml A [10 mg/ml in PBS], time point 90 min, Average): 4.96 ng/mL
level at 5 min (rat, plasma, 3 mg, pH 3.5, ID 0.3 ml B [10 mg/ml, 10 mg/ml LLC, 400 mM Citrate pH 3.5, 150 mM NaCl], time point 5 min, Average): 417 ng/mL
AUC(0-t) (rat, plasma, other: intra-duodenal injection (ID), 3 mg, ID 0.3 ml A [10 mg/ml in PBS], Average (PK value of the mean concentrations), read-out: AUC0-90 (converted)): 6.73 ng·h/mL
Cmax (rat, plasma, other: intra-duodenal injection (ID), 3 mg, ID 0.3 ml A [10 mg/ml in PBS], Average (PK value of the mean concentrations), read-out: Cmax): 5.7 ng/mL
Half-Life (rat, plasma, other: intra-duodenal injection (ID), 3 mg, ID 0.3 ml A [10 mg/ml in PBS], Average (PK value of the mean concentrations), read-out: Half-Life): 155 min

From patent US20150246093A1, “ORAL FORMULATIONS OF ANGIOTENSIN” (TARIX PHARMACEUTICALS LTD., priority 2012, published 2015)
